Data published in PMC7815786, “Antimicrobial effects of syndiotactic polypeptides” (Scientific Reports, 2021).
In brackets after ≈: the same amount, converted by molar mass. Where a SMILES comes first, the peptide text is derived from it. [ ]: non-standard residue; d: D form.

What was measured:
[1] = test system: Escherichia coli MG1655; assay type: cell-based
Procedure: (§1) The antibacterial activity was performed using micro-dilution method as per Clinical and Laboratory Standards Institute (CLSI). Gentamicin resistant MRSA (ATCC 33592), Mycobacterium smegmatis (ATCC607) were procured from ATCC, Escherichia coli MG1655 has been sourced fromChaudhary laboratory, BSBE, IIT Guwahati. The clinical isolates was provided by Dr. Chimanjita Phukan (Guwahati Medical College Hospital, Bhangagarh, Guwahati, Assam). The media broth was procured from Himedia Laboratories. Overnight culture of Gentamicin resistant MRSA (ATCC 33592), Escherichia coli MG1655, clinical isolates [(S. aureus (drug resistant) and E. coli (multidrug resistant) supplementary table 2] were diluted to 10^6 CFU/mL in Nutrient Broth (NB). 100 µL of broth containing 50 µL of bacterial suspension and test peptides at various concentrations were incubated for 12 to 16 h at 37 °C[33]. Similarly, Mycobacterium smegmatis (ATCC607) was diluted to 10^6 CFU/mL in M7H9 media. 50 µL of bacterial suspension was treated with 50 µL peptides at various concentrations. The peptide bacterial suspension was incubated for 72 h at 37 °C. The antimicrobial potencies of the peptides were evaluated at 600 nm by a comparative assessment with untreated bacterial suspension (negative control). The Minimal Inhibitory Concentration (MIC) was reported at the lowest concentration, where no growth was observed, as per standard protocols. The serum sensitivity experiment was similar to antibacterial activity. In this experiment, 50% serum containing media was used, instead of media alone. The experiment with human serum was performed as per IHEC (Institute Human Ethics Committee) guidelines, at IIT Guwahati hospital, from healthy adult donors. All the protocols were approved by the IHEC, and performed, with the informed consent and written approval from the subjects.

[2] = test system: Mycobacterium smegmatis (ATCC607); assay type: cell-based; settings: ATCC607, 72 h
Procedure: as §1

[3] = test system: Gentamicin resistant MRSA (ATCC 33592); assay type: cell-based, Staphylococcus aureus
Procedure: as §1

[4] = test system: clinical isolate of drug resistant Staphylococcus aureus (sample 28401); assay type: cell-based; settings: clinical isolate of drug resistant (sample 28401)
Procedure: as §1
(§2) Primary screening of the antibacterial activity of the peptides was performed against clinical isolates obtained from a tertiary referral hospital (Details in supplementary information, section 3). Resistant Staphylococcus aureus (Gram-positive) and E.coli (Gram negative) are the two clinical bacterial strains assayed in this study. The results of the antimicrobial assay are summarized in Fig. 4 and supplementary Table 2.
(§3) Supplementary Table 2. The in-vitro antimicrobial activity of designed peptides against clinical isolates of multi-drug resistant Staphylococcus aureus and Escherichia coli. The concentration is expressed in µM.

[5] = test system: clinical isolate of multi-drug resistant Escherichia coli (sample 28162); assay type: cell-based; settings: clinical isolate of multi-drug resistant (sample 28162)
Procedure: as §1, §2, §3

[6] = test system: bacterial species tested (not specified); assay type: cell-based; settings: wet lab experiments, bacterial species not given
Procedure: as §1
Several modes of action of AMP’s have been proposed, and the contentious issue primarily is whether the peptide is targeting the membrane, followed by its disruption or it penetrates the membrane invading cytoplasm, affecting cellular metabolism. […]

For `CC(C)[C@H](NC(=O)[C@@H](Cc1c[nH]c2ccccc12)NC(=O)[C@H](Cc1c[nH]c2ccccc12)NC(=O)[C@@H](CCCCN)NC(=O)[C@H](CCCNC(=N)N)NC(=O)[C@@H](CCCCN)NC(=O)[C@@H](NC(=O)[C@H](NC(=O)[C@H](Cc1c[nH]c2ccccc12)NC(=O)[C@@H](Cc1c[nH]c2ccccc12)NC(=O)[C@H](CCCNC(=N)N)NC(=O)[C@@H](CCCCN)NC(=O)[C@@H](N)CCCNC(=N)N)C(C)C)C(C)C)C(N)=O` [AS01] (H-R[dK]R[dW]W[dV]V[dK]R[dK]W[dW]V-NH2), the “MIC E. coli, Medium” value [1] was 3.13 µM (≈ 5.99 µg/mL), the “MIC M.smegmatis, Medium” value [2] was 6.25 µM (≈ 12 µg/mL) and the “MIC Gentamicin resistant MRSA, Medium” value [3] was 6.25 µM (≈ 12 µg/mL).
For `CC(C)C[C@H](NC(=O)[C@@H](Cc1c[nH]c2ccccc12)NC(=O)[C@H](CC(C)C)NC(=O)[C@@H](Cc1c[nH]c2ccccc12)NC(=O)[C@H](CCCNC(=N)N)NC(=O)[C@@H](CCCCN)NC(=O)[C@@H](N)CCCNC(=N)N)C(=O)N[C@H](CCCCN)C(=O)N[C@@H](CCCNC(=N)N)C(=O)N[C@H](CCCCN)C(=O)N[C@@H](Cc1c[nH]c2ccccc12)C(=O)N[C@H](CC(C)C)C(=O)N[C@@H](Cc1c[nH]c2ccccc12)C(N)=O` [AS02] (H-R[dK]R[dW]L[dW]L[dK]R[dK]W[dL]W-NH2), the “MIC E. coli, Medium” value [1] was 6.25 µM (≈ 12.2 µg/mL), the “MIC M.smegmatis, Medium” value [2] was 3.13 µM (≈ 6.12 µg/mL) and the “MIC S. aureus clinical isolate” value [4] was 50 µM (≈ 97.7 µg/mL). For the same compound, the “MIC E.coli clinical isolate” value [5] was 50 µM (≈ 97.7 µg/mL) and the “MIC Gentamicin resistant MRSA, Medium” value [3] was 3.13 µM (≈ 6.12 µg/mL).
`CC(C)[C@H](NC(=O)[C@H](NC(=O)[C@H](Cc1c[nH]c2ccccc12)NC(=O)[C@@H](Cc1c[nH]c2ccccc12)NC(=O)[C@H](CCCCN)NC(=O)[C@@H](CCCCN)NC(=O)[C@H](CCCCN)NC(=O)[C@H](NC(=O)[C@H](Cc1c[nH]c2ccccc12)NC(=O)[C@@H](Cc1c[nH]c2ccccc12)NC(=O)[C@H](CCCCN)NC(=O)[C@@H](CCCCN)NC(=O)[C@@H](N)CCCCN)C(C)C)C(C)C)C(N)=O` [AS03] (H-K[dK]K[dW]W[dV]K[dK]K[dW]W[dV]V-NH2) was tested, and the “MIC values (summary in discussion)” value [6] was 1 to 10 µM, the “MIC E. coli, Medium” value [1] was 6.25 µM (≈ 11.4 µg/mL) and the “MIC M.smegmatis, Medium” value [2] was 6.25 µM (≈ 11.4 µg/mL). For the same compound, the “MIC S. aureus clinical isolate” value [4] was 25 µM (≈ 45.7 µg/mL), the “MIC E.coli clinical isolate” value [5] was 25 µM (≈ 45.7 µg/mL) and the “MIC Gentamicin resistant MRSA, Medium” value [3] was 3.13 µM (≈ 5.72 µg/mL).
`CC(C)[C@@H](NC(=O)[C@H](Cc1c[nH]c2ccccc12)NC(=O)[C@H](NC(=O)[C@H](CCCCN)NC(=O)[C@@H](CCCCN)NC(=O)[C@H](CCCCN)NC(=O)[C@@H](Cc1c[nH]c2ccccc12)NC(=O)[C@@H](N)Cc1c[nH]c2ccccc12)C(C)C)C(=O)N[C@@H](CCCCN)C(=O)N[C@H](CCCCN)C(=O)N[C@@H](CCCCN)C(=O)N[C@H](Cc1c[nH]c2ccccc12)C(=O)N[C@@H](Cc1c[nH]c2ccccc12)C(N)=O` [AS04] (H-W[dW]K[dK]K[dV]W[dV]K[dK]K[dW]W-NH2) was tested, and the “MIC E. coli, Medium” value [1] was 3.13 µM (≈ 6 µg/mL), the “MIC M.smegmatis, Medium” value [2] was 6.25 µM (≈ 12 µg/mL) and the “MIC S. aureus clinical isolate” value [4] was 50 µM (≈ 95.8 µg/mL). The “MIC E.coli clinical isolate” value [5] was 25 µM (≈ 47.9 µg/mL) and the “MIC Gentamicin resistant MRSA, Medium” value [3] was 1.6 µM (≈ 3.06 µg/mL).
In the case of `CC(C)[C@H](NC(=O)[C@H](NC(=O)[C@H](CCCCN)NC(=O)[C@@H](CCCCN)NC(=O)[C@H](CCCCN)NC(=O)[C@H](NC(=O)[C@@H](NC(=O)[C@H](NC(=O)[C@H](CCCCN)NC(=O)[C@@H](CCCCN)NC(=O)[C@@H](N)CCCCN)C(C)C)C(C)C)C(C)C)C(C)C)C(=O)N[C@H](Cc1c[nH]c2ccccc12)C(=O)N[C@@H](CCCCN)C(N)=O` [AS06] (H-K[dK]K[dV]V[dV]K[dK]K[dV]V[dW]K-NH2), the “MIC values (summary in discussion)” value [6] is reported as about 50 µM (≈ 79.8 µg/mL), the “MIC E. coli, Medium” value [1] is reported as 25 µM (≈ 39.9 µg/mL) and the “MIC M.smegmatis, Medium” value [2] is reported as 25 µM (≈ 39.9 µg/mL). The “MIC Gentamicin resistant MRSA, Medium” value [3] was 50 µM (≈ 79.8 µg/mL).
For `CC(C)C[C@@H](NC(=O)[C@H](Cc1c[nH]c2ccccc12)NC(=O)[C@@H](CC(C)C)NC(=O)[C@@H](N)Cc1c[nH]c2ccccc12)C(=O)N[C@@H](Cc1c[nH]c2ccccc12)C(=O)N[C@H](CC(C)C)C(=O)N[C@@H](Cc1c[nH]c2ccccc12)C(=O)N[C@@H](C(=O)N[C@@H](CCCCN)C(=O)N[C@H](CCCCN)C(=O)N[C@@H](C)C(=O)N[C@H](CCCCN)C(=O)N[C@@H](C)C(=O)N[C@H](CCCCN)C(=O)N[C@@H](CCCCN)C(N)=O)C(C)C` [AS08] (H-W[dL]W[dL]W[dL]W[dV]K[dK]A[dK]A[dK]K-NH2), the “MIC values (summary in discussion)” value [6] was 1 to 10 µM, the “MIC E. coli, Medium” value [1] was 6.25 µM (≈ 12.4 µg/mL) and the “MIC M.smegmatis, Medium” value [2] was 6.25 µM (≈ 12.4 µg/mL). For the same compound, the “MIC Gentamicin resistant MRSA, Medium” value [3] was 6.25 µM (≈ 12.4 µg/mL).
